Read-outs that look alike come from different tables or passages of the source.

These results are taken from article PMC11942566, “Next-Generation Analogues of AC265347 as Positive Allosteric Modulators of the Calcium-Sensing Receptor: Pharmacological Investigation of Structural Modifications at the Stereogenic Centre” (International Journal of Molecular Sciences, 2025).

The target of assay [1] is T1, wild-type human CaSR (calcium-sensing receptor) (Homo sapiens, UniProt P41180).
T1 construct: full-length wild-type, cmyc-tagged
T1 sequence (P41180 20-1078): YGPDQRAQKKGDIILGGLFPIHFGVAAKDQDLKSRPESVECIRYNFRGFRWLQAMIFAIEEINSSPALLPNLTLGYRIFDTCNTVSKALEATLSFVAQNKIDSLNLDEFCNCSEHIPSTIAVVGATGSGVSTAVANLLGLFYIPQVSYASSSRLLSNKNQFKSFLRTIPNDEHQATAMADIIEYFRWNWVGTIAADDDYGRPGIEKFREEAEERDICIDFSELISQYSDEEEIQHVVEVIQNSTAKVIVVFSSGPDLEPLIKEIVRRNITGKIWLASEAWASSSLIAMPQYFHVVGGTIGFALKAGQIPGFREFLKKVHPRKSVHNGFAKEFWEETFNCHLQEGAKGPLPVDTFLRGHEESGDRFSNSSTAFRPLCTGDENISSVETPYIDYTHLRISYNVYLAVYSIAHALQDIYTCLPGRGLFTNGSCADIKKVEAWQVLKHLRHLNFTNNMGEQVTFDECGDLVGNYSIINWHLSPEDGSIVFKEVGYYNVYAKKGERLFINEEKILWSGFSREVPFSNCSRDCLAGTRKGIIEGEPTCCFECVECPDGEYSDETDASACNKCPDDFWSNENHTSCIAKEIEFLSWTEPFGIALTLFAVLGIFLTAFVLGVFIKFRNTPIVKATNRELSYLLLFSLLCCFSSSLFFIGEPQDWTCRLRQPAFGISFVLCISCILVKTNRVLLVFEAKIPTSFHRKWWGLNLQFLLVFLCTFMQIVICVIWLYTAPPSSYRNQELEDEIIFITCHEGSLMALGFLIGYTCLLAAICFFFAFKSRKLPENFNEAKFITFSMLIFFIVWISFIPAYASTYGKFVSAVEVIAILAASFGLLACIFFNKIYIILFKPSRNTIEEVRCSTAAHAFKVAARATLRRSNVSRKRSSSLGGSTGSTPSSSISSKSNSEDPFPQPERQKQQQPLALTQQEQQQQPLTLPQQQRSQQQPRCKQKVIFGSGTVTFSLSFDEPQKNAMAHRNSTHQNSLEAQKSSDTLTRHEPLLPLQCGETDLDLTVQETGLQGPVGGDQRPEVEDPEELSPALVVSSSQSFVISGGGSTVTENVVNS
Briefly: Ca2+i mobilisation (Fluo-8), operational model of allosteric modulation. In kind it is cell-based. Particulars: for Kb: read-out: pKB ± SEM (KB) (converted). From the text:
Ca2+i mobilisation (Fluo-8), operational model of allosteric modulation on wild-type human CaSR (calcium-sensing receptor)

In assay [2] the target is T1, wild-type human CaSR (calcium-sensing receptor). As to the kind of experiment: Ca2+i mobilisation (Fluo-8), four-parameter sigmoidal fit with shared Hill slope. The assay is classed as cell-based. As to conditions: positive allosteric modulation of Ca2+o response, pH 7.4, 37 °C; KB not determinable.
Setting [3] is: functional affinity estimate (from pKB), positive allosteric modulator, allosteric site, Ca2+o as orthosteric agonist, pH 7.4, 37 °C, reanalysis of the authors' previously published data, cited from earlier work.

As for `C=CC(O)(c1nc2ccccc2s1)c1ccc(C)cc1C` (racemic) [7b, 1-(Benzo[d]thiazol-2-yl)-1-(2,4-dimethylphenyl)prop-2-en-1-ol], in assay [1], the Kb was 8.1 µM. In the case of `Cc1ccc(C(C)(O)c2nc3ccccc3s2)c(C)c1` (racemic) [compound 1, 1-(Benzo[d]thiazol-2-yl)-1-(2,4-dimethylphenyl)ethan-1-ol], in assay [1] (setting [3]), the Kb is 3.4 µM. On to `Cc1ccc(C(O)(c2nc3ccccc3s2)C(F)(F)F)c(C)c1` (racemic) [compound 5, 5], for which the Kb in assay [1] (setting [3]) was 5 µM. On to `Cc1ccc(C2(c3nc4ccccc4s3)CO2)c(C)c1` (racemic) [compound 6, 2-(2-(2,4-Dimethylphenyl)oxiran-2-yl)benzo[d]thiazole], for which, in assay [1], the Kb was 29 µM.

Take `Cc1ccc(C2(c3nc4ccccc4s3)CCO2)c(C)c1` (racemic) [compound 7, 2-(2-(2,4-Dimethylphenyl)oxetan-2-yl)benzo[d]thiazole]: the “pKB ± SEM (KB, μM)” value in assay [1] (functional affinity estimate (from pKB), positive allosteric modulator, allosteric site, Ca2+o as orthosteric agonist, pH 7.4, 37 °C, unreliable (extrapolated beyond highest tested concentration 30 μM)) was 123 μM.

Regarding `COC(C)(c1nc2ccccc2s1)c1ccc(C)cc1C` (racemic) [compound 8, 2-(1-(2,4-Dimethylphenyl)-1-methoxyethyl)benzo[d]thiazole], the “fold increase in Ca2+o potency (pEC50) at 10 μM” value in assay [2] was determined as 1.8 fold. On to `Cc1ccc(C(C)(F)c2nc3ccccc3s2)c(C)c1` (racemic) [compound 9, 2-(1-(2,4-Dimethylphenyl)-1-fluoroethyl)benzo[d]thiazole], for which, in assay [1], the Kb is 10 µM.
